Key:
Experiment in all cases: relative viability (nuclei count vs DMSO), 5 days (fraction); higher = more cells survive
GSK126 + Bortezomib = compound: CC[C@H](C)N1C=C(C2=C(C=C(C=C21)C3=CN=C(C=C3)N4CCNCC4)C(=O)NCC5=C(C=C(NC5=O)C)C)C [GSK126] + CC(C)C[C@H](NC(=O)[C@H](Cc1ccccc1)NC(=O)c1cnccn1)B(O)O [Bortezomib] (partner 0.002 µM)
Outline: (§1)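 Lung cancer cell lines, seeded in 1536-well plates, were treated the following day by pin tool with a single drug or with five library-drug doses (not always all listed) in √10 steps on top of a fixed anchor-drug dose. Cells were fixed and nuclei stained in one step after 5 days, and nuclei were counted. Relative viability is the nuclei count for treated wells divided by that for vehicle wells, reported as medians of duplicate plates.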

MLN4924 + Crizotinib = compound: NS(=O)(=O)OC[C@@H]1C[C@@H](n2ccc3c(N[C@H]4CCc5ccccc54)ncnc32)C[C@@H]1O [MLN4924] + C[C@@H](Oc1cc(-c2cnn(C3CCNCC3)c2)cnc1N)c1c(Cl)ccc(F)c1Cl [Crizotinib] (partner 1 µM)
Outline: as §1

MLN4924 + Lapatinib = compound: NS(=O)(=O)OC[C@@H]1C[C@@H](n2ccc3c(N[C@H]4CCc5ccccc54)ncnc32)C[C@@H]1O [MLN4924] + CS(=O)(=O)CCNCc1ccc(-c2ccc3ncnc(Nc4ccc(OCc5cccc(F)c5)c(Cl)c4)c3c2)o1 [Lapatinib] (partner 2 µM)
Outline: as §1

MLN4924 + Foretinib = compound: NS(=O)(=O)OC[C@@H]1C[C@@H](n2ccc3c(N[C@H]4CCc5ccccc54)ncnc32)C[C@@H]1O [MLN4924] + COc1cc2c(Oc3ccc(NC(=O)C4(C(=O)Nc5ccc(F)cc5)CC4)cc3F)ccnc2cc1OCCCN1CCOCC1 [Foretinib] (partner 0.25 µM)
Outline: as §1

Row | Cell Line | relative viability (GSK126 + Bortezomib; first compound 0.08 µM) | relative viability (GSK126 + Bortezomib; first compound 0.253 µM) | relative viability (GSK126 + Bortezomib; first compound 0.8 µM) | relative viability (GSK126 + Bortezomib; first compound 2.53 µM) | relative viability (GSK126 + Bortezomib; first compound 8 µM) | relative viability (MLN4924 + Crizotinib; first compound 0.04 µM) | relative viability (MLN4924 + Crizotinib; first compound 0.1265 µM) | relative viability (MLN4924 + Crizotinib; first compound 0.4 µM) | relative viability (MLN4924 + Crizotinib; first compound 1.265 µM) | relative viability (MLN4924 + Crizotinib; first compound 4 µM) | relative viability (MLN4924 + Lapatinib; first compound 0.04 µM) | relative viability (MLN4924 + Lapatinib; first compound 0.1265 µM) | relative viability (MLN4924 + Lapatinib; first compound 0.4 µM) | relative viability (MLN4924 + Lapatinib; first compound 1.265 µM) | relative viability (MLN4924 + Lapatinib; first compound 4 µM) | relative viability (MLN4924 + Foretinib; first compound 0.04 µM) | relative viability (MLN4924 + Foretinib; first compound 0.1265 µM) | relative viability (MLN4924 + Foretinib; first compound 0.4 µM) | relative viability (MLN4924 + Foretinib; first compound 1.265 µM) | relative viability (MLN4924 + Foretinib; first compound 4 µM)
1 | LU99A | 1.13 | 1.08 | 1.19 | 1.15 | 1.12 | 0.555 | 0.359 | 0.351 | 0.16 | 0.151 | 0.779 | 0.339 | 0.294 | 0.145 | 0.151 | 0.531 | 0.365 | 0.314 | 0.188 | 0.236
2 | NCI-H1299 | 1.03 | 1.01 | 0.999 | 0.969 | 1.06 | 0.875 | 0.825 | 0.4 | 0.252 | 0.246 | 0.954 | 0.838 | 0.329 | 0.282 | 0.253 | 1.01 | 0.82 | 0.499 | 0.33 | 0.176
3 | NCI-H1355 | 1.27 | 1.33 | 1.11 | 1.17 | 1.19 | 1.04 | 1.03 | 0.963 | 0.484 | 0.208 | 0.952 | 1.02 | 0.64 | 0.181 | 0.166 | 0.943 | 0.91 | 0.889 | 0.472 | 0.201
4 | HCC-15 | 1.04 | 1.1 | 0.974 | 0.957 | 0.975 | 0.505 | 0.2 | 0.227 | 0.0834 | 0.0819 | 0.514 | 0.374 | 0.115 | 0.0895 | 0.0956 | 0.688 | 0.219 | 0.183 | 0.109 | 0.0915
5 | LXF-289 | 1.04 | 0.996 | 1 | 1.01 | 1.04 | 0.605 | 0.566 | 0.508 | 0.205 | 0.126 | 0.804 | 0.682 | 0.416 | 0.184 | 0.15 | 0.846 | 0.564 | 0.565 | 0.188 | 0.0965
6 | 201T | 1.09 | 1.12 | 1.07 | 1.2 | 0.959 | 1.05 | 0.994 | 0.984 | 0.401 | 0.391 | 1.13 | 1.09 | 0.826 | 0.384 | 0.417 | 1.23 | 0.842 | 0.561 | 0.194 | 0.175
7 | HOP-62 | 0.645 | 0.816 | 0.862 | 0.837 | 0.724 | 0.701 | 0.261 | 0.167 | 0.0427 | 0.0866 | 0.843 | 0.798 | 0.205 | 0.114 | 0.0815 | 0.669 | 0.312 | 0.246 | 0.0894 | 0.0942
8 | NCI-H1703 | 0.444 | 0.339 | 0.191 | 0.407 | 0.209 | 0.214 | 0.159 | 0.187 | 0.109 | 0.0907 | 0.416 | 0.205 | 0.218 | 0.189 | 0.164 | 0.267 | 0.226 | 0.19 | 0.173 | 0.248
9 | NCI-H1975 | 0.509 | 0.31 | 0.361 | 0.392 | 0.343 | 0.876 | 1.11 | 1.17 | 0.484 | 0.22 | 1.13 | 1.02 | 0.308 | 0.152 | 0.169 | 0.962 | 1.08 | 1.27 | 0.488 | 0.207
10 | NCI-H2023 | 1.45 | 1.01 | 1.19 | 1.39 | 1.37 | 0.579 | 0.918 | 0.298 | 0.0965 | 0.0683 | 0.352 | 0.133 | 0.0733 | 0.0477 | 0.0781 | 0.987 | 0.719 | 0.406 | 0.0781 | 0.0729
11 | EBC-1 | 0.61 | 0.542 | 0.529 | 0.563 | 0.411 | 0.167 | 0.189 | 0.215 | 0.149 | 0.156 | 0.246 | 0.297 | 0.228 | 0.191 | 0.216 | 0.109 | 0.15 | 0.147 | 0.082 | 0.0997
12 | COR-L23 | 1.08 | 0.979 | 0.942 | 1.01 | 0.992 | 0.588 | 0.567 | 0.431 | 0.136 | 0.0871 | 0.921 | 0.672 | 0.431 | 0.142 | 0.106 | 0.985 | 0.844 | 0.644 | 0.299 | 0.141
13 | NCI-H1793 | – | – | – | – | – | – | – | – | – | – | 0.662 | 0.645 | 0.395 | 0.136 | 0.167 | 0.822 | 1.08 | 0.957 | 0.461 | 0.256
14 | A549 | – | – | – | – | – | 0.772 | 0.634 | 0.416 | 0.0489 | 0.0552 | 0.71 | 0.667 | 0.079 | 0.0634 | 0.0662 | 0.972 | 0.8 | 0.508 | 0.0828 | 0.0301
15 | CAL-12T | 0.942 | 1.01 | 0.929 | 1.08 | 1.04 | 0.638 | 0.665 | 0.284 | 0.248 | 0.134 | – | 0.603 | 0.354 | 0.198 | 0.243 | 1.01 | 1.03 | 0.463 | 0.422 | 0.181
16 | NCI-H1993 | 1.23 | 1.06 | 1.11 | 1.04 | 0.995 | 1.02 | 0.678 | 0.626 | 0.447 | 0.622 | 0.732 | 0.666 | 0.581 | 0.547 | 0.516 | 0.624 | 0.59 | 0.517 | 0.553 | 0.602
